In patent US9951065B2 (Gilead Sciences, Inc., priority 2015, dated 2018):

These compounds were tested against T1, IDO1 (Homo sapiens, UniProt P14902) (assay: Cell-based (HeLa) assay for measurement of IDO1 inhibition (kynurenine levels in supernatant after IFNγ induction)). Settings: HeLa cells, IFNγ-induced IDO1, kynurenine in supernatant after 48 hour incubation; geometric mean of a minimum of four determinations.
T1 construct: HeLa cells were treated with a test compound in the presence of IFNγ, which induces IDO1 expression; host or cells: H1-HeLa cells, IDO1 induced with IFNγ
T1 sequence (P14902 whole entry): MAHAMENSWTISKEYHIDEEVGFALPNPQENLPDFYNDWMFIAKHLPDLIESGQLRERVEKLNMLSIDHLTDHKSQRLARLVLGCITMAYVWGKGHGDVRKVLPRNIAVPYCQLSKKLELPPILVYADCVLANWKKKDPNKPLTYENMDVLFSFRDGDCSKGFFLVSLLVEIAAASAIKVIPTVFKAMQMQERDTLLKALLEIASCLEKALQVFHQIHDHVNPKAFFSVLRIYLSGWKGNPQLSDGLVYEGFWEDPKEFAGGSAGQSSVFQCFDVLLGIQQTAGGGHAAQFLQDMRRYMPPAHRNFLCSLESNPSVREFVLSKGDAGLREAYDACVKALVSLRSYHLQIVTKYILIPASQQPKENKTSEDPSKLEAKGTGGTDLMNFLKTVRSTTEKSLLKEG
Method in brief: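 IDO1 activity is read as kynurenine released into the medium, detected with Ehrlich's reagent (p-dimethylaminobenzaldehyde) at 480 nm after TCA treatment. HeLa cells were exposed 48 h to compounds in 0.5% DMSO alongside IFNγ induction. Values normalized to no-IFNγ and IFNγ controls; four-parameter EC50 given as geometric mean of ≥4 determinations.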
CC(C)c1cc(N/C(=N\O)c2ccnc3nc[nH]c23)ccc1F [Example 93, N-(4-Fluoro-3-isopropylphenyl)-N′-hydroxy-1H-imidazo[4,5-b]pyridine-7-carboximidamide] was tested, and the EC50 was 5100 nM.
Work on Cc1ccc(N/C(=N\O)c2ccnc3nc[nH]c23)cc1 [Example 94, N′-Hydroxy-N-(p-tolyl)-1H-imidazo[4,5-b]pyridine-7-carboximidamide] yielded an EC50 of 6350 nM.
Work on C#Cc1cccc(N/C(=N\O)c2ccnc3nc[nH]c23)c1 [Example 95, N-(3-ethynylphenyl)-N′-hydroxy-1H-imidazo[4,5-b]pyridine-7-carboximidamide] yielded an EC50 of 302 nM.
Work on CCc1cccc(N/C(=N\O)c2ccnc3nc[nH]c23)c1 [Example 96, N-(3-Ethylphenyl)-N′-hydroxy-1H-imidazo[4,5-b]pyridine-7-carboximidamide] yielded an EC50 of 803 nM.
With C#Cc1cc(N/C(=N\O)c2ccnc3nc[nH]c23)ccc1F [Example 97, N-(3-ethynyl-4-fluorophenyl)-N′-hydroxy-1H-imidazo[4,5-b]pyridine-7-carboximidamide] the EC50 was 380 nM.
Compound O/N=C(\Nc1cccc(C(F)F)c1)c1ccnc2nc[nH]c12 [Example 98, N-(3-(difluoromethyl)phenyl)-N′-hydroxy-1H-imidazo[4,5-b]pyridine-7-carboximidamide] has an EC50 of 550 nM.
O/N=C(\Nc1cccc(OC(F)(F)F)c1)c1ccnc2nc[nH]c12 [Example 99, N′-Hydroxy-N-(3-(trifluoromethoxy)phenyl)-1H-imidazo[4,5-b]pyridine-7-carboximidamide] gave an EC50 of 602 nM.
In the case of O/N=C(\Nc1ccccc1)c1ccnc2nc[nH]c12 [Example 100, N′-hydroxy-N-phenyl-1H-imidazo[4,5-b]pyridine-7-carboximidamide], the EC50 is reported as 770 nM.
For O/N=C(\Nc1ccc(F)c(OC(F)(F)F)c1)c1ccnc2nc[nH]c12 [Example 101, N-(4-Fluoro-3-(trifluoromethoxy)phenyl)-N′-hydroxy-1H-imidazo[4,5-b]pyridine-7-carboximidamide], the EC50 was 845 nM.
O/N=C(\Nc1ccc2ccccc2c1)c1ccnc2nc[nH]c12 [Example 102, N′-hydroxy-N-(naphthalen-2-yl)-1H-imidazo[4,5-b]pyridine-7-carboximidamide] gave an EC50 of 1930 nM.
With O/N=C(\Nc1cc2ccccc2cc1Cl)c1ccnc2nc[nH]c12 [Example 103, N-(3-Chloronaphthalen-2-yl)-N′-hydroxy-1H-imidazo[4,5-b]pyridine-7-carboximidamide] the EC50 was 8070 nM.
O/N=C(\Nc1cccc2ccccc12)c1ccnc2nc[nH]c12 [Example 104, N′-hydroxy-N-(naphthalen-1-yl)-1H-imidazo[4,5-b]pyridine-7-carboximidamide] gave an EC50 of 1970 nM.
In the case of O/N=C(\Nc1ccc(Cl)c2ccccc12)c1ccnc2nc[nH]c12 [Example 105, N-(4-Chloronaphthalen-1-yl)-N′-hydroxy-1H-imidazo[4,5-b]pyridine-7-carboximidamide], the EC50 is reported as 3030 nM.
For COc1cc(N/C(=N\O)c2ccnc3nc[nH]c23)ccc1F [Example 106, N-(4-Fluoro-3-methoxyphenyl)-N′-hydroxy-1H-imidazo[4,5-b]pyridine-7-carboximidamide], the EC50 was 5540 nM.
Cc1nc2nccc(/C(=N/O)Nc3ccc(F)c(Cl)c3)c2[nH]1 [Example 107, N-(3-Chloro-4-fluorophenyl)-N′-hydroxy-2-methyl-1H-imidazo[4,5-b]pyridine-7-carboximidamide] showed an EC50 of 1920 nM.
CCc1nc2nccc(/C(=N/O)Nc3ccc(F)c(Cl)c3)c2[nH]1 [Example 108, N-(3-Chloro-4-fluorophenyl)-2-ethyl-N′-hydroxy-1H-imidazo[4,5-b]pyridine-7-carboximidamide] gave an EC50 of 3190 nM.
For O/N=C(\Nc1ccc(F)c(Cl)c1)c1ccnc2nc(C3CC3)[nH]c12 [Example 109, N-(3-Chloro-4-fluorophenyl)-2-cyclopropyl-N′-hydroxy-1H-imidazo[4,5-b]pyridine-7-carboximidamide], the EC50 was 1390 nM.
With COCc1nc2nccc(/C(=N/O)Nc3ccc(F)c(Cl)c3)c2[nH]1 [Example 110, N-(3-Chloro-4-fluorophenyl)-N′-hydroxy-2-(methoxymethyl)-1H-imidazo[4,5-b]pyridine-7-carboximidamide] the EC50 was 2320 nM.
O=c1onc(-c2ccnc3nc(CO)[nH]c23)n1-c1ccc(F)c(Cl)c1 [Example 111, 4-(3-Chloro-4-fluorophenyl)-3-(2-(hydroxymethyl)-1H-imidazo[4,5-b]pyridin-7-yl)-1,2,4-oxadiazol-5(4H)-one] gave an EC50 of 4450 nM.
O/N=C(\Nc1ccc(F)c(Cl)c1)c1ccnc2nc(CN3CCOCC3)[nH]c12 [Example 112, N-(3-Chloro-4-fluorophenyl)-N′-hydroxy-2-(morpholinomethyl)-1H-imidazo[4,5-b]pyridine-7-carboximidamide] gave an EC50 of 9530 nM.
CN(C)Cc1nc2nccc(/C(=N/O)Nc3ccc(F)c(Cl)c3)c2[nH]1 [Example 113, N-(3-Chloro-4-fluorophenyl)-2-((dimethylamino)methyl)-N′-hydroxy-1H-imidazo[4,5-b]pyridine-7-carboximidamide] showed an EC50 of 1840 nM.
CCNCc1nc2nccc(/C(=N/O)Nc3ccc(F)c(Cl)c3)c2[nH]1 [Example 114, N-(3-Chloro-4-fluorophenyl)-2-((ethylamino)methyl)-N′-hydroxy-1H-imidazo[4,5-b]pyridine-7-carboximidamide] showed an EC50 of 927 nM.
O/N=C(\Nc1ccc(F)c(Cl)c1)c1ccnc2nc(CNCc3ccccc3)[nH]c12 [Example 115, 2-((Benzylamino)methyl)-N-(3-chloro-4-fluorophenyl)-N′-hydroxy-1H-imidazo[4,5-b]pyridine-7-carboximidamide] showed an EC50 of 1760 nM.
In the case of CC(C)NCc1nc2nccc(/C(=N/O)Nc3ccc(F)c(Cl)c3)c2[nH]1 [Example 116, N-(3-Chloro-4-fluorophenyl)-N′-hydroxy-2-((isopropylamino)methyl)-1H-imidazo[4,5-b]pyridine-7-carboximidamide], the EC50 is reported as 740 nM.
In the case of O/N=C(\Nc1ccc(F)c(Cl)c1)c1ccnc2nc(CNCC3CC3)[nH]c12 [Example 117, N-(3-Chloro-4-fluorophenyl)-2-(((cyclopropylmethyl)amino)methyl)-N′-hydroxy-1H-imidazo[4,5-b]pyridine-7-carboximidamide], the EC50 is reported as 765 nM.
O/N=C(\Nc1ccc(F)c(Cl)c1)c1ccnc2nc(CNCC(F)(F)F)[nH]c12 [Example 118, N-(3-Chloro-4-fluorophenyl)-N′-hydroxy-2-(((2,2,2-trifluoroethyl)amino)methyl)-1H-imidazo[4,5-b]pyridine-7-carboximidamide] was tested, and the EC50 was 4640 nM.
For O/N=C(\Nc1ccc(F)c(Cl)c1)c1ccnc2nc(CNC3CC3)[nH]c12 [Example 119, N-(3-Chloro-4-fluorophenyl)-2-((cyclopropylamino)methyl)-N′-hydroxy-1H-imidazo[4,5-b]pyridine-7-carboximidamide], the EC50 was 2150 nM.
Work on COCCCNCc1nc2nccc(/C(=N/O)Nc3ccc(F)c(Cl)c3)c2[nH]1 [Example 120, N-(3-Chloro-4-fluorophenyl)-N′-hydroxy-2-(((3-methoxypropyl)amino)methyl)-1H-imidazo[4,5-b]pyridine-7-carboximidamide] yielded an EC50 of 1330 nM.
For O/N=C(\Nc1ccc(F)c(Cl)c1)c1ccnc2nc(CNCc3ccccn3)[nH]c12 [Example 121, N-(3-Chloro-4-fluorophenyl)-N′-hydroxy-2-(((pyridin-2-ylmethyl)amino)methyl)-1H-imidazo[4,5-b]pyridine-7-carboximidamide], the EC50 was 1370 nM.
Compound COCCCN(C)Cc1nc2nccc(/C(=N/O)Nc3ccc(F)c(Cl)c3)c2[nH]1 [Example 122, N-(3-Chloro-4-fluorophenyl)-N′-hydroxy-2-(((3-methoxypropyl)(methyl)amino)methyl)-1H-imidazo[4,5-b]pyridine-7-carboximidamide] has an EC50 of 1880 nM.
In the case of COc1ccccc1CNCc1nc2nccc(/C(=N/O)Nc3ccc(F)c(Cl)c3)c2[nH]1 [Example 123, N-(3-Chloro-4-fluorophenyl)-N′-hydroxy-2-(((2-methoxybenzyl)amino)methyl)-1H-imidazo[4,5-b]pyridine-7-carboximidamide], the EC50 is reported as 1910 nM.
Work on COCCNCc1nc2nccc(/C(=N/O)Nc3ccc(F)c(Cl)c3)c2[nH]1 [Example 124, N-(3-Chloro-4-fluorophenyl)-N′-hydroxy-2-(((2-methoxyethyl)amino)methyl)-1H-imidazo[4,5-b]pyridine-7-carboximidamide] yielded an EC50 of 2060 nM.
Work on O/N=C(\Nc1ccc(F)c(Cl)c1)c1ccnc2nc(CNCCc3ccccn3)[nH]c12 [Example 125, N-(3-Chloro-4-fluorophenyl)-N′-hydroxy-2-(((2-(pyridin-2-yl)ethyl)amino)methyl)-1H-imidazo[4,5-b]pyridine-7-carboximidamide] yielded an EC50 of 2080 nM.
With O/N=C(\Nc1ccc(F)c(Cl)c1)c1ccnc2nc(CNCc3cccnc3)[nH]c12 [Example 126, N-(3-Chloro-4-fluorophenyl)-N′-hydroxy-2-(((pyridin-3-ylmethyl)amino)methyl)-1H-imidazo[4,5-b]pyridine-7-carboximidamide] the EC50 was 2280 nM.
O/N=C(\Nc1ccc(F)c(Cl)c1)c1ccnc2nc(CNCC3CCCCO3)[nH]c12 (stereo not shown) [Example 127, N-(3-Chloro-4-fluorophenyl)-N′-hydroxy-2-((((tetrahydro-2H-pyran-2-yl)methyl)amino)methyl)-1H-imidazo[4,5-b]pyridine-7-carboximidamide] was tested, and the EC50 was 2360 nM.
O/N=C(\Nc1ccc(F)c(Cl)c1)c1ccnc2nc(CNc3ccccc3)[nH]c12 [Example 128, N-(3-Chloro-4-fluorophenyl)-N′-hydroxy-2-((phenylamino)methyl)-1H-imidazo[4,5-b]pyridine-7-carboximidamide] was tested, and the EC50 was 2400 nM.
O/N=C(\Nc1ccc(F)c(Cl)c1)c1ccnc2nc(CNCC3CCCOC3)[nH]c12 (stereo not shown) [Example 129, N-(3-Chloro-4-fluorophenyl)-N′-hydroxy-2-((((tetrahydro-2H-pyran-3-yl)methyl)amino)methyl)-1H-imidazo[4,5-b]pyridine-7-carboximidamide] gave an EC50 of 2580 nM.
